Reference: ChEMBL document CHEMBL3244136, “Structure-activity study of beta-adrenergic agents using the SIMCA method of pattern recognition” (J Med Chem, 1978)

tested on: Anura; experiment: Displacement of (-)-[3H]alprenolol from adrenergic receptor purified from frog erythrocytes

Point of comparison: `CCC(NC1CCCC1)C(O)c1ccc(O)c(O)c1` (centres undefined), pKb 4.41. Against it:
- CCNCC(O)c1cccc(O)c1 (centres undefined) — higher, 4.66
- CC(C)(Cc1ccc(O)cc1)NCC(O)c1ccc(O)c(O)c1 (centres undefined) — higher, 7.22
- CC(CCc1ccccc1)NC(C)C(O)c1ccc(O)cc1 (centres undefined) — higher, 6.74
- NC(CCO)C(O)c1ccccc1 (centres undefined) — within 0.2 log units, 4.29
- CC(Cc1ccc(O)cc1)NCC(O)c1ccc(O)c(O)c1 (centres undefined) — higher, 6.17
- CC(Cc1ccc2c(c1)OCO2)NCC(O)c1ccc(O)c(O)c1 (centres undefined) — higher, 6.17
- CNCC(O)c1cccc(O)c1 (centres undefined) — within 0.2 log units, 4.28
- CNC[C@H](O)c1ccc(O)c(O)c1 — higher, 5.07
- CCC(N)C(O)c1ccc(O)c(O)c1 (centres undefined) — higher, 4.74
- CC(COc1ccccc1)NC(C)C(O)c1ccc(O)c(CS(=O)(=O)N(C)C)c1 (centres undefined) — higher, 7.12
- NCC(O)c1cccc(Cl)c1 (centres undefined) — lower, 4.08
- Oc1ccc(CCCNCCc2ccc(O)c(O)c2)cc1 — higher, 4.64
- CNCC(O)c1cccc(NS(C)(=O)=O)c1 (centres undefined) — lower, 4.19
- NCCc1ccc(O)c(O)c1 — lower, < 3.7
- CC(CCc1ccc(O)cc1)NCCc1ccc(O)c(O)c1 (centres undefined) — higher, 4.62
- CC(C)(Cc1ccccc1)NCC(O)c1ccc(O)c(NS(C)(=O)=O)c1 (centres undefined) — higher, 7.85
- NC[C@H](O)c1ccc(O)c(O)c1 — lower, < 3.7
- CC(COc1ccccc1)NC(C)C(O)c1ccc(O)cc1 (centres undefined) — higher, 5.85
- CC(N)C(O)c1cccc(O)c1 (centres undefined) — within 0.2 log units, 4.46
- NCCc1ccc(O)cc1 — lower, < 3.7
- COc1cccc(C(O)C(C)NC(C)C)c1 (centres undefined) — higher, 5.11
- NCC(O)c1ccc(O)cc1 (centres undefined) — lower, < 3.7
- CNC(C)C(O)c1ccccc1 (centres undefined) — higher, 5.04
- Oc1ccc(CCNCCc2ccc(O)c(O)c2)cc1 — within 0.2 log units, 4.33
- NCCc1ccccc1 — lower, 3.7
- CC(N)C(O)c1ccc(O)c(O)c1 (centres undefined) — within 0.2 log units, 4.55
- CC(NCCc1ccc(O)cc1)C(O)c1ccc(O)cc1 (centres undefined) — higher, 5.06

tested on: Anura; experiment: Displacement of (-)-[3H]alprenolol from adrenergic receptor purified from frog erythrocytes relative to isoproterenol

Point of comparison: `Oc1ccc(CCCNCCc2ccc(O)c(O)c2)cc1`, Intrinsic activity 0.17. Against it:
- CC(C)(Cc1ccc(O)cc1)NCC(O)c1ccc(O)c(O)c1 (centres undefined) — higher, 1.2
- CC(Cc1ccc(O)cc1)NCC(O)c1ccc(O)c(O)c1 (centres undefined) — higher, 1.1
- CC(Cc1ccc2c(c1)OCO2)NCC(O)c1ccc(O)c(O)c1 (centres undefined) — higher, 1.1
- CCC(NC1CCCC1)C(O)c1ccc(O)c(O)c1 (centres undefined) — higher, 0.64
- CNC[C@H](O)c1ccc(O)c(O)c1 — higher, 0.75
- CCC(N)C(O)c1ccc(O)c(O)c1 (centres undefined) — higher, 0.71
- CC(CCc1ccc(O)cc1)NCCc1ccc(O)c(O)c1 (centres undefined) — higher, 0.25
- CC(C)(Cc1ccccc1)NCC(O)c1ccc(O)c(NS(C)(=O)=O)c1 (centres undefined) — higher, 0.27
- Oc1ccc(CCNCCc2ccc(O)c(O)c2)cc1 — higher, 0.25
- CC(N)C(O)c1ccc(O)c(O)c1 (centres undefined) — higher, 0.87
